Results published in ChEMBL document CHEMBL1145929, “Syntheses and binding studies of new [(aryl)(aryloxy)methyl]piperidine derivatives and related compounds as potential antidepressant drugs with high affinity for serotonin (5-HT) and norepinephrine (NE) transporters” (J Med Chem, 2003).

How the values were obtained:
[1] = biological target: Sodium-dependent dopamine transporter (Rattus norvegicus, UniProt P23977); experiment: Binding affinity against dopamine transporter (DAT) by displacement of [3H]WIN-35428 in male wistar rats
Sodium-dependent dopamine transporter, sequence (P23977 whole entry): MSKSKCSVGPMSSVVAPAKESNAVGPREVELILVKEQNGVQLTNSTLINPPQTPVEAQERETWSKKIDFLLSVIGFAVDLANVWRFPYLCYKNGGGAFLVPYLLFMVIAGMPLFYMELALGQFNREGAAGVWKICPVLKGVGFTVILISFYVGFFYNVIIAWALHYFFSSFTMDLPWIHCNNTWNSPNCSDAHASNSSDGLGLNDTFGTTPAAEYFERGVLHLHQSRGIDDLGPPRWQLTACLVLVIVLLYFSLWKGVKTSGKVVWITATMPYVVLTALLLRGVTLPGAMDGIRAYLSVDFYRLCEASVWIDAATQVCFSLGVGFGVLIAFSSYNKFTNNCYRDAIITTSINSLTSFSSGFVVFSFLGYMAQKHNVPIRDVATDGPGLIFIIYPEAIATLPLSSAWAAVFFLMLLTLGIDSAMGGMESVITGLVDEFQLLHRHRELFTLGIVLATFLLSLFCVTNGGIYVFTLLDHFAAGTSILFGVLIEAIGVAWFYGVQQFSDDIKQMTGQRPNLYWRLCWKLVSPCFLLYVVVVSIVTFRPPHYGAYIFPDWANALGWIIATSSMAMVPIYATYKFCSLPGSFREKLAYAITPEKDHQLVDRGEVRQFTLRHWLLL

[2] = biological target: T1, 5-hydroxytryptamine receptor 2A (Rattus norvegicus, UniProt P14842); experiment: Binding affinity against 5-hydroxytryptamine 2A receptor by displacement of [3H]-ketanserin from rat prefrontal cerebral cortex mambranes; format: tissue-based, Frontal cortex
T1 sequence (P14842 whole entry): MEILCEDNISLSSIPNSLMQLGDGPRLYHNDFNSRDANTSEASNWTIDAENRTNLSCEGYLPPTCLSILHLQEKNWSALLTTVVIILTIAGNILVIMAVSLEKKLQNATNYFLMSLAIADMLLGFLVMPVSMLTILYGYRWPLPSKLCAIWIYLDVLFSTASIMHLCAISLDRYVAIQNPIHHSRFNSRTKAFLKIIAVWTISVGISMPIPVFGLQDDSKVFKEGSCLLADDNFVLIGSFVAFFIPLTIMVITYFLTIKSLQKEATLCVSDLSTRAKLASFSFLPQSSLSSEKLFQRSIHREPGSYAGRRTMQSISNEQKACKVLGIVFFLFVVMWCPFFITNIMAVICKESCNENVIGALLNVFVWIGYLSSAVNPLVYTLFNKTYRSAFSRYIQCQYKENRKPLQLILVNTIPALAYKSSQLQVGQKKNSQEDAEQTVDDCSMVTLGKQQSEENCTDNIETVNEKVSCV

[3] = biological target: T2, 5-hydroxytryptamine receptor 1A (Rattus norvegicus, UniProt P19327); experiment: Binding affinity against 5-hydroxytryptamine 1A receptor (5-HT1A) by displacement of [3H]8-OH-DPAT from rat hippocampus membranes; format: cell membranes, Membrane
T2 sequence (P19327 whole entry): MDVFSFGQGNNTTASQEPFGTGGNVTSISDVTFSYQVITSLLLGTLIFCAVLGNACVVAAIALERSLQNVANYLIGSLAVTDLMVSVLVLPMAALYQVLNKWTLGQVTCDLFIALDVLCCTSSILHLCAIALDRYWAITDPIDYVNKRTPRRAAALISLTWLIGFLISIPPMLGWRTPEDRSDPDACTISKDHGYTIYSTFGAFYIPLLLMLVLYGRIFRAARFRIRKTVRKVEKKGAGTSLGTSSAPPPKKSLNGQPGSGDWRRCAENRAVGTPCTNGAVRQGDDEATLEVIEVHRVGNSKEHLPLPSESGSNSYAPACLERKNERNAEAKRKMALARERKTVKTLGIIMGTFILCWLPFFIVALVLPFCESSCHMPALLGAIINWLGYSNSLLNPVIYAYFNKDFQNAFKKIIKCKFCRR

[4] = biological target: T3, Sodium-dependent serotonin transporter (Rattus norvegicus, UniProt P31652); experiment: Binding affinity to the serotonin transporter (SERT) measured by displacement of [3H]paroxetine in male wistar rats
T3 sequence (P31652 whole entry): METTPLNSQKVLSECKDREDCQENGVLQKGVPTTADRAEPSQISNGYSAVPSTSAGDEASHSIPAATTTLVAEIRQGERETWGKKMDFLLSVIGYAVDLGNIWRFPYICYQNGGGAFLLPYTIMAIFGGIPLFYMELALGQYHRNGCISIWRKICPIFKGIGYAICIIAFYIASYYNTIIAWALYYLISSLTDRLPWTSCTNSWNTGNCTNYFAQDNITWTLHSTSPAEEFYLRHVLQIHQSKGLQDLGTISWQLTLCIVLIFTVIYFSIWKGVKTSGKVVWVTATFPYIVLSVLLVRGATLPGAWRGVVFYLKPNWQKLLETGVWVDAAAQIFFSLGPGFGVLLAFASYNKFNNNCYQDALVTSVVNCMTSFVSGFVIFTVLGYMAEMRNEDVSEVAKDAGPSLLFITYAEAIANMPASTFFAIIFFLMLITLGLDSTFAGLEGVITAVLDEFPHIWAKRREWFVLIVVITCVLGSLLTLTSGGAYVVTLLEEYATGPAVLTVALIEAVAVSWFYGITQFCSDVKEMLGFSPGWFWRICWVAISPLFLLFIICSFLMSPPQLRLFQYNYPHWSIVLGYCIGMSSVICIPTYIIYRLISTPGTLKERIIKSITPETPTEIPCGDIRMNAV

[5] = biological target: T3, Sodium-dependent serotonin transporter; experiment: Binding affinity against serotonin transporter (SERT) by displacement of [3H]paroxetine in male wistar rats
[6] = biological target: T1, 5-hydroxytryptamine receptor 2A; experiment: Binding affinity against 5-hydroxytryptamine 2A receptor by displacement of [3H]ketanserin from rat prefrontal cerebral cortex mambranes; format: tissue-based, Frontal cortex

Ki [1]	IC50 [2]	IC50 [3]	Ki [4]	IC50 [5]	Ki [6]	SMILES	IC50 [1]
0.11 µM	> 1 µM	> 1 µM	0.0014 µM	–	–	N#Cc1cccc(OC(c2ccccc2)C2CCNCC2)c1 (single isomer, unassigned; (-))	–
–	> 1 µM	> 1 µM	–	> 1 µM	–	Clc1ccc(OC(CCN2CCc3ccccc3C2)c2ccccc2)cc1 (stereo unspecified)	–
–	> 1 µM	> 1 µM	–	> 1 µM	–	COc1ccc(OC(c2ccc(F)cc2)C2CCN(C(C)=O)CC2)cc1 (stereo unspecified)	–
–	> 1 µM	> 1 µM	–	0.325 µM	–	COc1cc2c(cc1OC)CN(CCC(Oc1ccc(C)cc1)c1ccccc1)CC2 (stereo unspecified)	–
–	–	> 1 µM	–	> 1 µM	0.0144 µM	Nc1ccc(OC(CCC(=O)C2CCN(c3ccc(F)cc3)CC2)c2ccc(F)cc2)cc1 (stereo unspecified)	–
–	> 1 µM	> 1 µM	–	> 1 µM	–	Fc1cccc(OC(c2ccccc2)C2CCOCC2)c1 (stereo unspecified)	–
–	> 1 µM	> 1 µM	–	> 1 µM	–	c1ccc(-c2ccc(OC(c3ccccc3)C3CCNCC3)cc2)cc1 (stereo unspecified)	–
–	> 1 µM	> 1 µM	–	> 1 µM	–	Fc1ccccc1OC(CCN1CCc2ccccc2C1)c1ccccc1 (stereo unspecified)	–
–	> 1 µM	> 1 µM	–	–	–	Clc1cccc(OC(c2ccccc2)C2CCNCC2)c1 (stereo in doubt; (-)-15l)	> 0.5 µM
–	–	> 1 µM	–	> 1 µM	0.023 µM	O=C(CCC(Oc1ccc([N+](=O)[O-])cc1)c1ccccc1)C1CCN(c2ccc(F)cc2)CC1 (stereo unspecified)	–
–	> 1 µM	> 1 µM	0.0014 µM	–	–	N#Cc1cccc(OC(c2ccccc2)C2CCNCC2)c1 (single isomer, unassigned; (+))	> 1 µM
–	> 1 µM	> 1 µM	–	> 1 µM	–	Oc1cc2c(cc1O)CN(CCC(Oc1ccccc1F)c1ccccc1)CC2 (stereo unspecified)	–
–	> 1 µM	> 1 µM	–	> 1 µM	–	Cc1ccc(OC(CCN2CCc3cc(O)c(O)cc3C2)c2ccccc2)cc1 (stereo unspecified)	–
–	> 1 µM	> 1 µM	–	> 1 µM	–	Fc1cccc(OC(c2ccccc2)C2CCCC2)c1 (stereo unspecified)	–
–	–	> 1 µM	0.0783 µM	–	0.14 µM	Fc1ccc(OC(CC2CCNCC2)c2ccccc2)cc1 (stereo unspecified)	–
–	–	> 1 µM	–	> 1 µM	0.0282 µM	FC(F)(F)c1cccc(OC(CCN2CCN(c3nsc4ccccc34)CC2)c2ccccc2)c1 (stereo unspecified)	–
–	> 1 µM	> 1 µM	–	–	–	Clc1cccc(OC(c2ccccc2)C2CCNCC2)c1 (stereo in doubt; (+)-15l)	> 1 µM
0.821 µM	> 1 µM	> 1 µM	0.0004 µM	–	–	Fc1ccc(OC(c2ccccc2)C2CCNCC2)cc1 (stereo in doubt; (+)-15p)	–
–	–	> 1 µM	0.0677 µM	–	0.194 µM	Fc1ccc(OC(CC2CCNCC2)c2ccc(F)cc2)cc1 (stereo unspecified)	–
–	> 1 µM	> 1 µM	–	> 1 µM	–	CC(=O)N1CCC(C(Oc2ccccc2)c2ccc(F)cc2)CC1 (stereo unspecified)	–
–	> 1 µM	> 1 µM	–	> 1 µM	–	Oc1cc2c(cc1O)CN(CCC(Oc1ccc(Cl)cc1)c1ccccc1)CC2 (stereo unspecified)	–
–	> 1 µM	> 1 µM	–	> 1 µM	–	Cc1ccc(OC(CCN2CCc3ccccc3C2)c2ccccc2)cc1 (stereo unspecified)	–
–	> 1 µM	> 1 µM	–	> 1 µM	–	COc1cc2c(cc1OC)CN(CCC(Oc1ccc(Cl)cc1)c1ccccc1)CC2 (stereo unspecified)	–
–	–	> 1 µM	0.0058 µM	–	0.36 µM	Fc1ccc(OC(c2cccc(F)c2)C2CCNCC2)cc1 (stereo unspecified)	–

SMILES	Ki [1]	IC50 [2]	IC50 [3]	Ki [4]	IC50 [5]	Ki [6]	IC50 [1]
Fc1cccc(OC(c2cccc(F)c2)C2CCNCC2)c1 (single isomer, unassigned; (+))	–	> 1 µM	> 1 µM	0.0028 µM	–	–	> 0.5 µM
Fc1cc(F)cc(OC(c2ccccc2)C2CCNCC2)c1 (stereo in doubt; (-)-15aj)	–	> 1 µM	> 1 µM	–	–	–	> 1 µM
Fc1cc(F)cc(OC(c2ccccc2)C2CCNCC2)c1 (stereo in doubt; (+)-15aj)	–	> 1 µM	> 1 µM	0.0071 µM	–	–	> 0.5 µM
